Data reported in patent US9795139B2, “Molecules having pesticidal utility, and intermediates, compositions, and processes, related thereto” (priority 2015, dated 2017).

Tests used:
Format in all cases: in vivo
[1] = test system: Cabbage Looper (Trichoplusia ni, TRIPNI); assay: Bioassay on Cabbage Looper (CL), 128-well diet tray assay; details: 168 h, 50 μg/cm^2 on artificial diet, second instar larvae, 25° C., five to seven days, average of eight wells, read-out: CL % Control (or Mortality) rating
Procedure, shortened: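 Percent mortality, averaged across eight replicate wells, was scored after five to seven days at 25° C. under a 14:10 light-dark cycle. Each well held one to five second instar larvae on artificial diet treated at 50 μg/cm^2 with compound from 90:10 acetone-water, allowed to dry before infestation.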

[2] = test system: Yellow Fever Mosquito (Aedes aegypti, AEDSAE); details: about 1 day-old larvae, 96-well plate from 4000 ppm DMSO master, 3 days at room temperature
Procedure, shortened: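 Aedes aegypti larvae (about 1 day old) in liver-powder water were added to plates dispensed from DMSO master plates (4000 ppm stock) diluted with 90:10 water/acetone; six replicate plates per master. Lidded plates were held at room temperature for 3 days, then each well was scored for mortality.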

[3] = test system: Green Peach Aphid (Myzus persicae, MYZUPE); assay: Bioassay on Green Peach Aphid (GPA), foliar spray on cabbage seedlings; details: 72 h, 200 ppm foliar spray on cabbage seedlings, three days, Abbott corrected % control, read-out: GPA % Control (or Mortality) rating
Protocol: Certain molecules disclosed in this document were tested against GPA using procedures described in the following example. In the reporting of the results, the “GPA & YFM Rating Table” was used (See Table Section).
Cabbage seedlings grown in 3-inch pots, with 2-3 small (3-5 cm) true leaves, were used as test substrate. The seedlings were infested with 20-50 GPA (wingless adult and nymph stages) one day prior to chemical application. Four pots with individual seedlings were used for each treatment. Test molecules (2 mg) were dissolved in 2 mL of acetone/methanol (1:1) solvent, forming stock solutions of 1000 ppm test molecule.
The stock solutions were diluted 5× with 0.025% Tween 20 in water to obtain the solution at 200 ppm test molecule. A hand-held aspirator-type sprayer was used for spraying a solution to both sides of […] leaves until runoff. Reference plants (solvent check) were sprayed with the diluent only containing 20% by volume of acetone/methanol (1:1) solvent. Treated plants were held in a holding room for three days at approximately 25° C. and ambient relative humidity (RH) prior to grading. Evaluation was conducted by counting the number of live aphids per plant under a microscope. Percent control was measured using Abbott's correction formula (W. S. Abbott, “A Method of Computing the Effectiveness of an Insecticide” J. Econ. Entomol. 18 (1925), pp. 265-267) as follows. Corrected % Control=100*(X−Y)/X where X=No. of live aphids on solvent check plants and Y=No. of live aphids on treated plants. The results are indicated in the table entitled “Table ABC: Biological Results” (See Table Section).

[4] = test system: Beet Armyworm (Spodoptera exigua, LAPHEG); assay: Bioassay on Beet Armyworm (BAW), 128-well diet tray assay; details: 168 h, 50 μg/cm^2 on artificial diet, second instar larvae, 25° C., five to seven days, average of eight wells, read-out: BAW % Control (or Mortality) rating
Procedure, shortened: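 Diet in each of eight wells received 50 μg/cm^2 of test molecule (90:10 acetone-water, dried), then one to five second-instar larvae were added. Mortality (%) was scored after five to seven days at 25° C. under 14:10 light-dark and averaged across the wells.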

SMILES	mortality at 50 µg/cm2 [1]	YFM % Control (or Mortality) rating [2]	mortality at 200 ppm [3]	mortality at 50 µg/cm2 [4]
O=C(NC1CC1)c1cccc(NC(=O)[C@H]2[C@H](c3cc(Cl)cc(Cl)c3)C2(Cl)Cl)c1 (relative stereo) [Molecule F3, trans-N-Cyclopropyl-3-(2,2-dichloro-3-(3,5-dichlorophenyl)cyclopropanecarboxamido)benzamide]	50 to 100%	A (80-100)	0 to 80%	50 to 100%
N#CC1(NC(=O)c2cc(NC(=O)[C@H]3[C@H](c4cc(Cl)cc(Cl)c4)C3(Cl)Cl)ccc2Cl)CC1 (relative stereo) [Molecule F4, trans-2-Chloro-N-(1-cyanocyclopropyl)-5-(2,2-dichloro-3-(3,5-dichlorophenyl)cyclopropanecarboxamido)benzamide]	50 to 100%	A (80-100)	80 to 100%	50 to 100%
O=C(NC1CC(F)(F)C1)c1cc(NC(=O)[C@H]2[C@H](c3cc(Cl)cc(Cl)c3)C2(Cl)Cl)ccc1Cl (relative stereo) [Molecule F5, trans-2-Chloro-5-(2,2-dichloro-3-(3,5-dichlorophenyl)cyclopropanecarboxamido)-N-(3,3-difluorocyclobutyl)benzamide]	50 to 100%	A (80-100)	80 to 100%	50 to 100%
O=C(NC1CCSC1)c1cc(NC(=O)[C@H]2[C@H](c3cc(Cl)c(Cl)c(Cl)c3)C2(Cl)Cl)ccc1Cl (relative stereo) [Molecule F8, trans-2-chloro-5-(2,2-dichloro-3-(3,4,5-trichlorophenyl)cyclopropanecarboxamido)-N-(tetrahydrothiophen-3-yl)benzamide]	50 to 100%	A (80-100)	0%	50 to 100%
O=C(NC1CC(F)(F)C1)c1cc(NC(=O)[C@H]2[C@H](c3ccc(Cl)c(Cl)c3)C2(Cl)Cl)ccc1Cl (relative stereo) [Molecule F9, trans-2-Chloro-5-(2,2-dichloro-3-(3,4-dichlorophenyl)cyclopropanecarboxamido)-N-(3,3-difluorocyclobutyl)benzamide]	50 to 100%	A (80-100)	80 to 100%	50 to 100%
N#CC1(NC(=O)c2cc(NC(=O)[C@H]3[C@H](c4cc(Cl)c(Cl)c(Cl)c4)C3(Cl)Cl)ccc2Cl)CC1 (relative stereo) [Molecule F10, trans-2-Chloro-N-(1-cyanocyclopropyl)-5-(2,2-dichloro-3-(3,4,5-trichlorophenyl)cyclopropanecarboxamido)benzamide]	50 to 100%	A (80-100)	80 to 100%	50 to 100%
N#CC1(NC(=O)c2cc(NC(=O)[C@H]3[C@H](c4ccc(Cl)c(Cl)c4)C3(Cl)Cl)ccc2Cl)CC1 (relative stereo) [Molecule F11, trans-2-Chloro-N-(1-cyanocyclopropyl)-5-(2,2-dichloro-3-(3,4-dichlorophenyl)cyclopropanecarboxamido)benzamide]	50 to 100%	A (80-100)	80 to 100%	50 to 100%
N#CC1(NC(=O)c2cc(NC(=O)[C@H]3[C@H](c4cc(Cl)cc(Cl)c4)C3(Cl)Cl)ccc2Cl)CCC1 (relative stereo) [Molecule F12, trans-2-Chloro-N-(1-cyanocyclobutyl)-5-(2,2-dichloro-3-(3,5-dichlorophenyl)cyclopropanecarboxamido)benzamide]	50 to 100%	A (80-100)	0 to 80%	50 to 100%
N#CC1(NC(=O)c2cc(NC(=O)[C@H]3[C@H](c4cc(Cl)c(Cl)c(Cl)c4)C3(Cl)Cl)ccc2Cl)CCC1 (relative stereo) [Molecule F13, trans-2-Chloro-N-(1-cyanocyclobutyl)-5-(2,2-dichloro-3-(3,4,5-trichlorophenyl)cyclopropanecarboxamido)benzamide]	50 to 100%	A (80-100)	0 to 80%	50 to 100%
O=C(NC1CSC1)c1cc(NC(=O)[C@H]2[C@H](c3cc(Cl)cc(Cl)c3)C2(Cl)Cl)ccc1Cl (relative stereo) [Molecule F15, trans-2-Chloro-5-(2,2-dichloro-3-(3,5-dichlorophenyl)cyclopropanecarboxamido)-N-(thietan-3-yl)benzamide]	50 to 100%	A (80-100)	80 to 100%	50 to 100%
O=C(NC1CSC1)c1cc(NC(=O)[C@H]2[C@H](c3ccc(Cl)c(Cl)c3)C2(Cl)Cl)ccc1Cl (relative stereo) [Molecule F16, trans-2-Chloro-5-(2,2-dichloro-3-(3,4-dichlorophenyl)cyclopropanecarboxamido)-N-(thietan-3-yl)benzamide]	50 to 100%	A (80-100)	80 to 100%	50 to 100%
O=C(NC1CSC1)c1cc(NC(=O)[C@H]2[C@H](c3cc(Cl)c(Cl)c(Cl)c3)C2(Cl)Cl)ccc1Cl (relative stereo) [Molecule F17, trans-2-Chloro-5-(2,2-dichloro-3-(3,4,5-trichlorophenyl)cyclopropanecarboxamido)-N-(thietan-3-yl)benzamide]	50 to 100%	A (80-100)	80 to 100%	50 to 100%
N#CC1(NC(=O)c2cc(NC(=O)[C@H]3[C@H](c4cccc(C(F)(F)F)c4)C3(Cl)Cl)ccc2Cl)CC1 (relative stereo) [Molecule F18, trans-2-Chloro-N-(1-cyanocyclopropyl)-5-(2,2-dichloro-3-(3-(trifluoromethyl)phenyl)cyclopropanecarboxamido)benzamide]	50 to 100%	B (More than 0-Less than 80)	80 to 100%	50 to 100%
O=C(NC1CCOCC1)c1cc(NC(=O)[C@H]2[C@H](c3cc(Cl)cc(Cl)c3)C2(Cl)Cl)ccc1Cl (relative stereo) [Molecule F55, trans-2-chloro-5-(2,2-dichloro-3-(3,5-dichlorophenyl)cyclopropanecarboxamido)-N-(tetrahydro-2H-pyran-4-yl)benzamide]	50 to 100%	–	80 to 100%	50 to 100%
CCNC(=O)C1(NC(=O)c2cc(NC(=O)C3C(c4cc(Cl)cc(Cl)c4)C3(Cl)Cl)ccc2Cl)CC1 (stereo not drawn) [PF43, trans-2-Chloro-5-(2,2-dichloro-3-(3,5-dichlorophenyl)cyclopropane-1-carbox-amido)-N-(1-(ethylcarbamoyl)cyclopropyl)benzamide]	50 to 100%	A (80-100)	–	50 to 100%
O=C(NN1CCN(CC(F)(F)F)C1=O)c1cc(NC(=O)C2C(c3cc(Cl)cc(Cl)c3)C2(Cl)Cl)ccc1Cl (stereo not drawn) [PF44, trans-2-Chloro-5-(2,2-dichloro-3-(3,5-dichlorophenyl)cyclopropane-1-carbox-amido)-N-(2-oxo-3-(2,2,2-trifluoroethyl)imidazolidin-1-yl)benzamide]	50 to 100%	A (80-100)	–	50 to 100%
CCN1OC[C@@H](NC(=O)c2cc(NC(=O)C3C(c4cc(Cl)cc(Cl)c4)C3(Cl)Cl)ccc2Cl)C1=O (stereo partly drawn) [PF45, trans-2-Chloro-5-(2,2-dichloro-3-(3,5-dichlorophenyl)cyclopropane-1-carbox-amido)-N—((R)-2-ethyl-3-oxoisoxazolidin-4-yl)benzamide]	50 to 100%	A (80-100)	–	50 to 100%
